Values after ≈ are worked out from the molar mass of the structure shown. Like-named read-outs stand apart in the source and are kept apart here.
Tests used:
[1] = Plasma pharmacokinetics in the COMBINE murine neutropenic pneumonia model; details: for k el: female, CD-1, mouse, plasma, sc; for K a (absorption rate constant into central compartment) / V plasma (volume of distribution in central compartment): best-fit one-compartment model
Experimental: (§1) The model followed the COMBINE protocol with laboratory-specific detailed methods as follows.[6] Specific pathogen free CD-1, female mice 6–8 weeks old were acquired from Charles River Laboratories, Inc. (Raleigh, NC, USA). All animals were allowed to acclimatize for 72 h before any study procedures and were housed as groups of six at controlled room temperature in HEPA-filtered cages (Innovive, San Diego, CA, USA). Study rooms were maintained with diurnal cycles (12 h light/12 h dark) and food and water were provided ad libitum.
(§2) Neutropenia was achieved through 0.2 mL intraperitoneal (IP) administrations of cyclophosphamide 150 mg/kg on day minus 4 and an additional 100 mg/kg on day minus 1. A predictable degree of renal impairment was produced using 5 mg/kg of uranyl nitrate (Electron Microscopy Sciences, Hatfield, PA, USA) dissolved in sterile water administered as a 0.2 mL IP injection on day minus 3. […] Mice were anaesthetised using inhaled isoflurane, manually restrained upright and infected with 50 µL of bacterial suspension via the nares. Each bacterial inoculation suspension was used within 30 minutes of initial preparation.
(§3) The purpose of these studies was to establish HSRs in both plasma and ELF in the COMBINE murine neutropenic pneumonia model equivalent to clinical doses of meropenem (2 g every 8 h as 3 h infusion),[9] cefiderocol (2 g every 8 h as 3 h infusion)[10] and tobramycin (7 mg/kg as 0.5 h infusion)[11–13] based on unbound (free) exposures.
(§4) At predefined timepoints (shown in Figures 1–3), groups of six mice had blood sampled via retro-orbital bleeding (two time points, under anaesthesia with isoflurane 2%–3% v/v in 100% oxygen via inhalation) and/or cardiac puncture (one terminal time point). Proparacaine hydrochloride ophthalmic solution 0.5% was applied to the eye (1–2 drops) after blood sampling via retro-orbital bleeding. The volume of blood collected was 0.15 mL per sample via retro-orbital bleeding with subsequent fluid replacement using 0.2 mL normal saline given IP. Mice were euthanized by CO2 exposure before cardiac puncture. Following blood collection by cardiac puncture, but before cervical dislocation, bronchoalveolar lavage (BAL) fluid was collected from the mice at the same time points. A catheter was inserted into the trachea of the mice, and lungs were lavaged with four separate aliquots of 0.4 mL of normal saline. The BAL fluid was withdrawn immediately after injection and pooled for each animal. Pooled BAL was centrifuged for 10 min at 4°C and the supernatant was collected for analysis.
(§5) Drug concentrations in ELF were estimated by correcting the drug concentration in BAL fluid for the dilution with normal saline during lung lavage using the following formula: compoundELF = compoundBAL × (ureaplasma/ureaBAL), where compoundBAL is the measured drug concentration in the BAL fluid sample and ureaplasma and ureaBAL are the concentrations of urea in paired plasma and BAL fluid samples from each mouse, respectively. Owing to the lack of albumin in BAL fluid, total ELF concentrations were considered unbound.
(§6) Statistical outliers for each respective analyte were removed by the interquartile range method. Previously reported meropenem, cefiderocol and plazomicin (an aminoglycoside similar to tobramycin) plasma HSRs developed in alternative murine models were used as a baseline.[19],[20] Mathematical modifications were made to the baseline regimens as necessary to achieve translational exposures in the COMBINE model and repeat confirmatory PK studies were undertaken for both plasma and ELF.

[2] = cited from earlier work
[3] = ELF pharmacokinetics in the COMBINE murine neutropenic pneumonia model; details: for k el: female, CD-1, mouse, epithelial lining fluid (ELF), sc; for K a-ELF (absorption rate constant into ELF compartment) / V ELF (volume of distribution in ELF compartment): best-fit one-compartment model
Experimental: as §1, §2, §3, §4, §5, §6

[4] = cited from earlier work; remark: listed apart in the source
[5] = parameters: method as in PMID 33371322, PMID 31724042, PMID 15107149; details: cited from earlier work
K. pneumoniae CDC 851 = tested on: K. pneumoniae CDC 851; parameters: method as in earlier work; details: cited from earlier work
[6] = Ex vivo tobramycin plasma protein binding in mice; assay type: in vitro ADME; details: mouse plasma; for fraction unbound at 1 h: subcutaneous
Experimental: Escalating single doses of tobramycin (2.5, 5 and 10 mg/kg) were administered subcutaneously to determine tobramycin plasma protein binding. Triplicate pooled plasma and ultrafiltrate samples were collected at 1 h (5 mice per replicate, 15 mice per dose) and stored at −80°C until concentration determination. Whole blood was collected in K2EDTA tubes and then subsequently centrifuged at 4°C at 3000g for 10 minutes. Plasma was separated (total plasma) and 900 µL was added to an ultrafiltration device (Centrifree®, Merck Millipore Ltd, Ireland) and centrifuged using a fixed rotor at 10°C at 2000g for an additional 45 minutes to obtain protein free ultrafiltrate. The triplicate free and total tobramycin concentrations were averaged and then free fractions were calculated using the equation: free fraction = concentrationultrafiltrate/concentrationtotal plasma.
Mean percentages of protein binding (±standard deviation) were 27.1% (2.9%), 20.5% (9.3%) and 19.8% (1.5%) at the 1-h timepoint after receiving doses of 2.5, 5 and 10 mg/kg, respectively.

clinical = details: human, in vivo
Experimental: as §3

[7] = human ELF, 2 g every 8 h as a 3 h infusion
[8] = human plasma, 2 g every 8 h as a 3 h infusion
[9] = human, 7 mg/kg as 0.5 h infusion

In the case of C[C@@H](O)[C@H]1C(=O)N2C(C(=O)O)=C(S[C@@H]3CN[C@H](C(=O)N(C)C)C3)[C@H](C)[C@H]12 [Meropenem, meropenem], the k el [1] is reported as 0.00754 s⁻¹, the “K a (absorption rate constant into central compartment)” value ([1]; mouse plasma) is reported as 1.34 h⁻¹ and the “V plasma (volume of distribution in central compartment)” value ([1]; mouse plasma) is reported as 0.04 L/kg. The “%fT > MIC for a MIC of 1 µg/mL” value ([1]; mouse plasma, plasma HSR) was 100%, the “%fT > MIC for a MIC of 2 µg/mL” value ([1]; mouse plasma, plasma HSR) was 100% and the “%fT > MIC for a MIC of 4 µg/mL” value ([1]; mouse plasma, plasma HSR) was 94%. The “%fT > MIC for a MIC of 8 µg/mL” value ([1]; mouse plasma, plasma HSR) was 75%, the “%fT > MIC for a MIC of 16 µg/mL” value ([1]; mouse plasma, plasma HSR) was 55% and the “%fT > MIC for a MIC of 32 µg/mL” value ([1]; mouse plasma, plasma HSR) was 29%. For the same compound, the “%fT > MIC for a MIC of 64 µg/mL” value ([1]; mouse plasma, plasma HSR) was 5%, the “%fT > MIC for a MIC of 128 µg/mL” value ([1]; mouse plasma, plasma HSR) was 0% and the “%fT > MIC for a MIC of 1 µg/mL” value [2, 7] was 90%. The “%fT > MIC for a MIC of 2 µg/mL” value [2, 7] was 71%, the “%fT > MIC for a MIC of 4 µg/mL” value [2, 7] was 50% and the “%fT > MIC for a MIC of 8 µg/mL” value [2, 7] was 16%. The “%fT > MIC for a MIC of 16 µg/mL” value [2, 7] was 0%, the “%fT > MIC for a MIC of 32 µg/mL” value [2, 7] was 0% and the “%fT > MIC for a MIC of 64 µg/mL” value [2, 7] was 0%. For the same compound, the “%fT > MIC for a MIC of 128 µg/mL” value [2, 7] was 0%, the k el [3] was 0.000694 s⁻¹ and the “%fT > MIC for a MIC of 1 µg/mL” value ([3]; mouse ELF, ELF HSR) was 78%. The “%fT > MIC for a MIC of 2 µg/mL” value ([3]; mouse ELF, ELF HSR) was 62%, the “%fT > MIC for a MIC of 4 µg/mL” value ([3]; mouse ELF, ELF HSR) was 43% and the “%fT > MIC for a MIC of 8 µg/mL” value ([3]; mouse ELF, ELF HSR) was 14%. For the same compound, the “%fT > MIC for a MIC of 16 µg/mL” value ([3]; mouse ELF, ELF HSR) was 3%, the “%fT > MIC for a MIC of 32 µg/mL” value ([3]; mouse ELF, ELF HSR) was 0% and the “%fT > MIC for a MIC of 64 µg/mL” value ([3]; mouse ELF, ELF HSR) was 0%. For the same compound, the “%fT > MIC for a MIC of 128 µg/mL” value ([3]; mouse ELF, ELF HSR) was 0%, the “K a-ELF (absorption rate constant into ELF compartment)” value ([3]; mouse ELF) was 7.00 h⁻¹ and the “V ELF (volume of distribution in ELF compartment)” value ([3]; mouse ELF) was 1.60 L/kg. The “%fT > MIC for a MIC of 1 µg/mL” value [4, 8] was 100%, the “%fT > MIC for a MIC of 2 µg/mL” value [4, 8] was 100% and the “%fT > MIC for a MIC of 4 µg/mL” value [4, 8] was 100%. For the same compound, the “%fT > MIC for a MIC of 8 µg/mL” value [4, 8] was 78%, the “%fT > MIC for a MIC of 16 µg/mL” value [4, 8] was 50% and the “%fT > MIC for a MIC of 32 µg/mL” value [4, 8] was 19%. The “%fT > MIC for a MIC of 64 µg/mL” value [4, 8] was 0% and the “%fT > MIC for a MIC of 128 µg/mL” value [4, 8] was 0%.
In the case of NC[C@H]1O[C@H](O[C@H]2[C@H](O)[C@@H](O[C@H]3O[C@H](CO)[C@@H](O)[C@H](N)[C@H]3O)[C@H](N)C[C@@H]2N)[C@H](N)C[C@@H]1O [Tobramycin, tobramycin], the “Human plasma protein binding” value [5] is listed as 10%, the k el [1] is listed as 8.61e-05 s⁻¹ and the “K a (absorption rate constant into central compartment)” value ([1]; mouse plasma) is listed as 23.68 h⁻¹. The “V plasma (volume of distribution in central compartment)” value ([1]; mouse plasma) was 0.37 L/kg, the “plasma fAUC0-24” value ([1]; murine, plasma HSR) was 103000 ng·h/mL and the “plasma fCmax” value ([1]; murine, plasma HSR) was 17.7 mg/L. For the same compound, the MIC (K. pneumoniae CDC 851) was 16 µg/mL (≈ 34.2 µM), the AUCELF/AUCplasma penetration ratio ([2]; human, population PK analysis) was 0.64 and the k el [3] was 9.72e-05 s⁻¹. For the same compound, the “K a-ELF (absorption rate constant into ELF compartment)” value ([3]; mouse ELF) was 1.74 h⁻¹, the “V ELF (volume of distribution in ELF compartment)” value ([3]; mouse ELF) was 0.79 L/kg and the “ELF fAUC0-24” value ([3]; murine, ELF HSR) was 76000 ng·h/mL. For the same compound, the “ELF fCmax” value ([3]; murine, ELF HSR) was 6.6 mg/L, the “Unbound fraction in plasma” value ([6]; average of 2.5, 5 and 10 mg/kg) was 77.6% and the fraction unbound at 1 h ([6]; 1 h after 2.5 mg/kg subcutaneously, ultrafiltration, read-out: Mean percentage of protein binding (±standard deviation) (converted)) was 0.729. For the same compound, the fraction unbound at 1 h ([6]; 1 h after 5 mg/kg subcutaneously, ultrafiltration, read-out: Mean percentage of protein binding (±standard deviation) (converted)) was 0.795, the fraction unbound at 1 h ([6]; 1 h after 10 mg/kg subcutaneously, ultrafiltration, read-out: Mean percentage of protein binding (±standard deviation) (converted)) was 0.802 and the fraction unbound at 1 h ([6]; average of 2.5, 5 and 10 mg/kg, read-out: Plasma protein binding, average across the three doses (converted)) was 0.776. For the same compound, the “plasma fAUC0-24” value [4, 9] was 103000 ng·h/mL, the “plasma fCmax” value [4, 9] was 18.3 mg/L and the Kp (clinical) was 0.69. The “ELF fAUC0-24” value (clinical; 7 mg/kg) was 79000 ng·h/mL and the “ELF fCmax” value (clinical; 7 mg/kg) was 6.8 mg/L.
